Legend:
5-HT2A receptor = 5-HT2A receptor (Homo sapiens, UniProt P28223); assay: biochemical; type: binding; parameters: expressed in transfected cells; host or cells: HEK293, stably transfected; conditions: [3H]ketanserin 1 nM; HEK293 stable cell line; 1 h, 25 °C
Protocol: Affinity of the test compounds for the 5-HT2A receptor was determined in radioligand binding experiments with [^3H]ketanserin by WuXi AppTec (Hong Kong) Limited, using methods adapted from the literature and under conditions described in Table 1.

in vitro [1] = type: in vitro ADME, human; conditions: HLM 0.50 mg/mL, NADPH 1 mM, 1 μM compound, pH 7.4, 37° C., 60 min
in vitro [2] = type: in vitro ADME, mouse; conditions: MLM (male CD-1) 0.50 mg/mL, NADPH 1 mM, 1 μM compound, pH 7.4, 37° C., 60 min
Text: MLM Stability Pooled MLM from male CD-1 mice (BIOIVT M00501) were used.

in vitro [3] = type: in vitro ADME, rat; conditions: RLM (male Sprague-Dawley) 0.50 mg/mL, NADPH 1 mM, 1 μM compound, pH 7.4, 37° C., 60 min
Text: RLM Stability Pooled RLM from male Sprague-Dawley rats (Xenotech R1000) were used.

5-HT2A receptor, sequence (P28223 whole entry): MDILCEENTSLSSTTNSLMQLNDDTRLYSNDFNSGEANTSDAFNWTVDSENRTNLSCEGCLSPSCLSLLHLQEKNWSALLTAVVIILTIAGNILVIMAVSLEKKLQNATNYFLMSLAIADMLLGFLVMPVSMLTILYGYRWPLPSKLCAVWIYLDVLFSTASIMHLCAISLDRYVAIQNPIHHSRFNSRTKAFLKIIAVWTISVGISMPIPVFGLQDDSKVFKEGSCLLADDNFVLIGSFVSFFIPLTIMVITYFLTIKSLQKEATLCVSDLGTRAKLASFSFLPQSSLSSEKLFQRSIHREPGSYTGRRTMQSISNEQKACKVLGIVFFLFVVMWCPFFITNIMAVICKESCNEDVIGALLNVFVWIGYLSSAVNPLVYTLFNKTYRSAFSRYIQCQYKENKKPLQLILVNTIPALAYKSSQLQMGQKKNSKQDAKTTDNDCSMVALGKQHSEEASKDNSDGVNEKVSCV

With CCN(CC)C(=O)[C@H]1C=C2c3cccc4[nH]cc(c34)C[C@H]2N(Cc2cccc(F)c2)C1 [Compound 52a, (6aR,9S)—N,N-diethyl-7-(3-fluorobenzyl)-4,6,6a,7,8,9-hexahydroindolo[4,3-fg]quinoline-9-carboxamide] the Ki (5-HT2A receptor) was greater than 1.23 µM.

Work on CCN(CC)C(=O)[C@H]1C=C2c3cccc4[nH]cc(c34)C[C@H]2N(Cc2ccc(F)c(F)c2)C1 [Compound 54a, (6aR,9S)-7-(3,4-difluorobenzyl)-N,N-diethyl-4,6,6a,7,8,9-hexahydroindolo[4,3-fg]quinoline-9-carboxamide] yielded a Ki (5-HT2A receptor) of 0.289 µM.

With [2H]C([2H])([2H])Oc1cccc(CN2C[C@H](C(=O)N(CC)CC)C=C3c4cccc5[nH]cc(c45)C[C@H]32)c1 [Compound 56, (6aR,9R)—N,N-diethyl-7-(3-(methoxy-d3)benzyl)-4,6,6,7,8,9-hexahydroindolo[4,3-fg]quinoline-9-carboxamide] the “Intrinsic clearance (Clint)” value (in vitro [1]) was 113.3 µL/min/mg, the “half-life (t1/2)” value (in vitro [1]) was 12.2 min and the “Intrinsic clearance (Clint)” value (in vitro [2]) was 223.3 µL/min/mg. The “half-life (t1/2)” value (in vitro [2]) was 6.2 min, the “Intrinsic clearance (Clint)” value (in vitro [3]) was 224.5 µL/min/mg and the “half-life (t1/2)” value (in vitro [3]) was 6.2 min.

In the case of [2H]C([2H])(c1cccc(OC)c1)N1C[C@@H](C(=O)N(CC)CC)C=C2c3cccc4[nH]cc(c34)C[C@H]21 [Compound 68a, (6aR,9S)—N,N-diethyl-7-((3-methoxyphenyl)methyl-d2)-4,6,6a,7,8,9-hexahydroindolo[4,3-fg]quinoline-9-carboxamide], the Ki (5-HT2A receptor) is reported as greater than 1.23 µM.

With C[C@H]1C[C@H](C)N1C(=O)[C@H]1C=C2c3cccc4[nH]cc(c34)C[C@H]2N(Cc2ccccc2)C1 [Compound 87a, ((6aR,9S)-7-benzyl-4,6,6a,7,8,9-hexahydroindolo[4,3-fg]quinolin-9-yl)((2S,4S)-2,4-dimethylazetidin-1-yl)methanone] the Ki (5-HT2A receptor) was 1.14 µM.

For COc1cccc(CN2C[C@H](C(=O)N3CCCC3)C=C3c4cccc5[nH]cc(c45)C[C@H]32)c1 [Compound 91, ((6aR,9R)-7-(3-methoxybenzyl)-4,6,6a,7,8,9-hexahydroindolo[4,3-fg]quinolin-9-yl)(pyrrolidin-1-yl)methanone], the Ki (5-HT2A receptor) was 0.128 µM.

Work on COc1cccc(CN2C[C@@H](C(=O)N3CCCC3)C=C3c4cccc5[nH]cc(c45)C[C@H]32)c1 [Compound 91a, ((6aR,9S)-7-(3-methoxybenzyl)-4,6,6a,7,8,9-hexahydroindolo[4,3-fg]quinolin-9-yl)(pyrrolidin-1-yl)methanone] yielded a Ki (5-HT2A receptor) greater than 1.23 µM.

CCN(C)C(=O)[C@H]1C=C2c3cccc4[nH]cc(c34)C[C@H]2N(Cc2cccc(OC)c2)C1 [Compound 92a, (6aR,9S)—N-ethyl-7-(3-methoxybenzyl)-N-methyl-4,6,6a,7,8,9-hexahydroindolo[4,3-fg]quinoline-9-carboxamide] showed a Ki (5-HT2A receptor) greater than 1.23 µM.

For CCCN(CC)C(=O)[C@H]1C=C2c3cccc4[nH]cc(c34)C[C@H]2N(Cc2cccc(OC)c2)C1 [Compound 93a, (6aR,9S)—N-ethyl-7-(3-methoxybenzyl)-N-propyl-4,6,6a,7,8,9-hexahydroindolo[4,3-fg]quinoline-9-carboxamide], the Ki (5-HT2A receptor) was 0.23 µM.

COc1cccc(CN2C[C@@H](C(=O)N3[C@@H](C)C[C@@H]3C)C=C3c4cccc5[nH]cc(c45)C[C@H]32)c1 [Compound 94a, ((2S,4S)-2,4-dimethylazetidin-1-yl)((6aR,9S)-7-(3-methoxybenzyl)-4,6,6a,7,8,9-hexahydroindolo[4,3-fg]quinolin-9-yl)methanone] gave a Ki (5-HT2A receptor) of 1.21 µM.

Work on CC[C@@H](C)NC(=O)[C@H]1C=C2c3cccc4[nH]cc(c34)C[C@H]2N(Cc2ccccc2)C1 [Compound 95a, (6aR,9S)-7-benzyl-N—((R)-sec-butyl)-4,6,6a,7,8,9-hexahydroindolo[4,3-fg]quinoline-9-carboxamide] yielded a Ki (5-HT2A receptor) of 0.123 µM.

In the case of [2H]C(c1cccc(OC)c1)N1C[C@H](C(=O)N(CC)CC)C=C2c3cccc4[nH]cc(c34)C[C@H]21 (stereo partly drawn) [Compound 96, (6aR,9R)—N,N-diethyl-7-((3-methoxyphenyl)methyl-d)-4,6,6a,7,8,9-hexahydroindolo[4,3-fg]quinoline-9-carboxamide], the Ki (5-HT2A receptor) is reported as 0.00399 µM.

[2H]C(c1cccc(OC)c1)N1C[C@@H](C(=O)N(CC)CC)C=C2c3cccc4[nH]cc(c34)C[C@H]21 (stereo partly drawn) [Compound 96a, (6aR,9S)—N,N-diethyl-7-((3-methoxyphenyl)methyl-d)-4,6,6a,7,8,9-hexahydroindolo[4,3-fg]quinoline-9-carboxamide] showed a Ki (5-HT2A receptor) of 1 µM.

In the case of CCN(CC)C(=O)[C@H]1C=C2c3cccc4[nH]cc(c34)C[C@H]2N(Cc2cccc(C)c2)C1 [Compound 98a, (6aR,9S)—N,N-diethyl-7-(3-methylbenzyl)-4,6,6a,7,8,9-hexahydroindolo[4,3-fg]quinoline-9-carboxamide], the Ki (5-HT2A receptor) is reported as 0.91 µM.

For CCN(CC)C(=O)[C@H]1C=C2c3cccc4[nH]cc(c34)C[C@H]2N(Cc2ccccc2C)C1 [Compound 99a, (6aR,9S)—N,N-diethyl-7-(2-methylbenzyl)-4,6,6a,7,8,9-hexahydroindolo[4,3-fg]quinoline-9-carboxamide], the Ki (5-HT2A receptor) was 0.802 µM.

Molecule CCN(CC)C(=O)[C@H]1C=C2c3cccc4[nH]cc(c34)C[C@H]2N(Cc2ccc3ccccc3c2)C1 [Compound 100a, (6aR,9S)—N,N-diethyl-7-(naphthalen-2-ylmethyl)-4,6,6a,7,8,9-hexahydroindolo[4,3-fg]quinoline-9-carboxamide] has a Ki (5-HT2A receptor) greater than 1.23 µM.

For CCN(CC)C(=O)[C@H]1C=C2c3cccc4[nH]cc(c34)C[C@H]2N(Cc2cccc3ccccc23)C1 [Compound 101a, (6aR,9S)—N,N-diethyl-7-(naphthalen-1-ylmethyl)-4,6,6a,7,8,9-hexahydroindolo[4,3-fg]quinoline-9-carboxamide], the Ki (5-HT2A receptor) was 0.75 µM.

CN(C)C(=O)[C@H]1C=C2c3cccc4[nH]cc(c34)C[C@H]2N(Cc2ccccc2)C1 [Compound 102a, (6aR,9S)-7-benzyl-N,N-dimethyl-4,6,6a,7,8,9-hexahydroindolo[4,3-fg]quinoline-9-carboxamide] gave a Ki (5-HT2A receptor) of 0.349 µM.

In the case of CCN(C)C(=O)[C@H]1C=C2c3cccc4[nH]cc(c34)C[C@H]2N(CC2CCCC2)C1 [Compound 103a, (6aR,9S)-7-(cyclopentylmethyl)-N-ethyl-N-methyl-4,6,6a,7,8,9-hexahydroindolo[4,3-fg]quinoline-9-carboxamide], the Ki (5-HT2A receptor) is reported as 0.511 µM.

With CN1C[C@H](C(=O)N2CCCC2)C=C2c3cccc4[nH]cc(c34)C[C@H]21 [Int22] the “Intrinsic clearance (Clint)” value (in vitro [1]) was less than 9.6 µL/min/mg and the “half-life (t1/2)” value (in vitro [1]) was greater than 145 min.
